Results as given in publication PMC8611843 (BMC Cancer, 2021).
Where two headings read alike, the source gives them in different places.

What was measured:
[1] = Phase 1 3 + 3 dose-escalation study: safety, DLTs and drug-related AEs (CTCAE v4.03); format: in vivo
Protocol: This study was based on a 3 + 3 dose-escalation design (Additional file 1). […] The duration of cycle 0 was 7 days and that of each cycle after cycle 1 was 28 days in principle. Treatment continued until progressive disease (PD) or discontinuation for other reasons (Additional file 1).
(§1) The primary endpoint was safety. The severity of adverse events (AEs) was evaluated using National Cancer Institute Common Terminology Criteria for Adverse Events version 4.03 [21].
However, patients with nausea, vomiting, diarrhea, and hypophosphatemia were allowed to continue treatment without interruption by receiving the appropriate care.
AEs were summarized by System Organ Class and Preferred Term according to the Medical Dictionary for Regulatory Activities, version 20.1. The Kaplan-Meier method was used to estimate the median PFS (mPFS). PFS is defined as the duration of time from day 1 to the date of death or of PD, whichever came first. Patients who received subsequent therapy before confirmation of PD or in whom neither PD nor death was confirmed were censored at the last time point of non-PD confirmation. Clinical benefit rate (CBR) was defined as the percentage of patients achieving complete response (CR) or partial response (PR), or who maintained stable disease (SD) for more than 6 months.

[2] = Plasma ENT concentration and PK parameters (LC/MS/MS); format: in vivo, Japanese patients
Protocol: The PK parameters assessed after single and/or combination therapy included time at which maximum plasma concentration (Cmax) was observed (tmax), and the area under the plasma concentration-time curve from time 0–168 h (AUC0–168).

[3] = system: Ac-K levels in CD19+ cells; test: Protein lysine acetylation (Ac-K) levels in PBMCs; format: in vivo, Japanese patients; conditions: 24 h after first administration
Protocol: Ac-K levels in CD19+ cells, CD56+ CD16- cells, CD14+ monocytes, CD16+ cells, CD3+ T-cells, and CD45+ cells were measured using the previously reported methods, with a modification where antiacetylated lysine monoclonal antibody (BioLegend, San Diego, CA, USA; Clone 15G10, Cat. 623406) was used.

[4] = system: HLA-DR, CD69, ICOS on CD4+ and CD8+ T-cells; test: T-cell activation markers on CD4+ and CD8+ T-cells in PBMCs; format: in vivo, Japanese patients; conditions: Cohorts 1–3
Protocol: Staining of CD3+ cells was performed using antibodies (all from BioLegend) against CD4 (Clone RPA-T4, Cat. 300512), CD8 (Clone SK-1, Cat. 344718), CD69 (Clone FN50, Cat. 310910), inducible T-cell costimulator (ICOS; Clone […], Cat. 313514), and human leukocyte antigen-DR (HLA-DR; Clone L243, Cat. 307630).

[5] = Electrocardiogram, change in QTc interval; format: in vivo, Japanese patients; conditions: patients tested
Protocol: as §1

[6] = system: PBMCs derived from lung cancer patients; design: method as in PMID 28408401; conditions: cited from earlier work
[7] = once weekly; cited from earlier work
[8] = system: HR+/HER2− advanced or metastatic BC; design: method as in PMID 23650416; conditions: ENCORE 301, N = 130; cited from earlier work
[9] = system: HR+/HER2− advanced or metastatic BC; conditions: BOLERO-2, cited from earlier work
[10] = Cohort 1 N = 3, ENT 3 mg mono → EXE combo
[11] = Cohort 2 N = 3, ENT 5 mg mono → EXE combo
[12] = Cohort 3 N = 3, ENT 10 mg mono → EXE combo
[13] = Cohort 4 N = 3, ENT 5 mg + EXE combo
[14] = Total N = 12, as of data cut-off date

SMILES: Nc1ccccc1NC(=O)c1ccc(CNC(=O)OCc2cccnc2)cc1 [ENT, Entinostat]
- Anemia, G2 (n patients, drug-related AE) [1, 10]: 1
- Back pain, G1 (n patients, drug-related AE) [1, 10]: 1
- Diarrhea, G2 (n patients, drug-related AE) [1, 10]: 1
- Hypoalbuminemia, G1 (n patients, drug-related AE) [1, 10]: 1
- Hypoalbuminemia, G2 (n patients, drug-related AE) [1, 10]: 1
- Neutrophil count decreased, G2 (n patients, drug-related AE) [1, 10]: 2
- Neutrophil count decreased, G3 (n patients, drug-related AE) [1, 10]: 1
- Platelet count decreased, G1 (n patients, drug-related AE) [1, 10]: 2
- Pneumonitis, G1 (n patients, drug-related AE) [1, 10]: 1
- Weight decreased, G2 (n patients, drug-related AE) [1, 10]: 1
- White blood cell count decreased, G1 (n patients, drug-related AE) [1, 10]: 1
- White blood cell count decreased, G2 (n patients, drug-related AE) [1, 10]: 1
- Anemia, G1 (n patients, drug-related AE) [1, 11]: 1
- Decreased appetite, G1 (n patients, drug-related AE) [1, 11]: 1
- Diarrhea, G1 (n patients, drug-related AE) [1, 11]: 1
- Fatigue, G1 (n patients, drug-related AE) [1, 11]: 1
- Gastritis, G1 (n patients, drug-related AE) [1, 11]: 1
- Headache, G1 (n patients, drug-related AE) [1, 11]: 1
- Hypoalbuminemia, G2 (n patients, drug-related AE) [1, 11]: 1
- Hypophosphatemia, G3 (n patients, drug-related AE) [1, 11]: 2
- Nausea, G1 (n patients, drug-related AE) [1, 11]: 2
- Neutrophil count decreased, G2 (n patients, drug-related AE) [1, 11]: 1
- Neutrophil count decreased, G3 (n patients, drug-related AE) [1, 11]: 1
- Platelet count decreased, G1 (n patients, drug-related AE) [1, 11]: 1
- Platelet count decreased, G3 (n patients, drug-related AE) [1, 11]: 1
- White blood cell count decreased, G2 (n patients, drug-related AE) [1, 11]: 1
- Anemia, G2 (n patients, drug-related AE) [1, 12]: 1
- Back pain, G1 (n patients, drug-related AE) [1, 12]: 1
- Decreased appetite, G1 (n patients, drug-related AE) [1, 12]: 1
- Fatigue, G1 (n patients, drug-related AE) [1, 12]: 1
- Headache, G1 (n patients, drug-related AE) [1, 12]: 1
- Hypoalbuminemia, G2 (n patients, drug-related AE) [1, 12]: 2
- Hypophosphatemia, G2 (n patients, drug-related AE) [1, 12]: 1
- Hypophosphatemia, G3 (n patients, drug-related AE) [1, 12]: 1
- Nausea, G1 (n patients, drug-related AE) [1, 12]: 2
- Neutrophil count decreased, G2 (n patients, drug-related AE) [1, 12]: 1
- Platelet count decreased, G1 (n patients, drug-related AE) [1, 12]: 1
- White blood cell count decreased, G2 (n patients, drug-related AE) [1, 12]: 1
- Anemia, G3 (n patients, drug-related AE) [1, 13]: 1
- Fatigue, G1 (n patients, drug-related AE) [1, 13]: 1
- Gastritis, G1 (n patients, drug-related AE) [1, 13]: 1
- Hypoalbuminemia, G1 (n patients, drug-related AE) [1, 13]: 1
- Hypoalbuminemia, G2 (n patients, drug-related AE) [1, 13]: 1
- Hypophosphatemia, G3 (n patients, drug-related AE) [1, 13]: 1
- Nausea, G1 (n patients, drug-related AE) [1, 13]: 2
- Neutrophil count decreased, G2 (n patients, drug-related AE) [1, 13]: 1
- Neutrophil count decreased, G3 (n patients, drug-related AE) [1, 13]: 1
- Platelet count decreased, G2 (n patients, drug-related AE) [1, 13]: 1
- Platelet count decreased, G3 (n patients, drug-related AE) [1, 13]: 1
- Pneumonitis, G1 (n patients, drug-related AE) [1, 13]: 1
- Weight decreased, G1 (n patients, drug-related AE) [1, 13]: 1
- White blood cell count decreased, G2 (n patients, drug-related AE) [1, 13]: 1
- Drug-related hypophosphatemia, grade 1 or 2 ([1]; DLT observation period): one patient in Cohorts 2, 3, and 4
- Drug-related nausea, grade 1 ([1]; DLT observation period): one patient in Cohort 3 and two patients in Cohort 4
- Drug-related platelet count decreased, grade 1 or 2 ([1]; DLT observation period): two patients in Cohort 4
- DLTs or grade 3–5 AEs ([1]; DLT observation period, ENT 3 mg or 5 mg once weekly or 10 mg single dose mono, ENT 5 mg weekly + EXE 25 mg/d): no DLTs or grade 3–5 AEs occurred
- Anemia, G1 (n patients, drug-related AE) [1, 14]: 1
- Anemia, G2 (n patients, drug-related AE) [1, 14]: 2
- Anemia, G3 (n patients, drug-related AE) [1, 14]: 1
- Back pain, G1 (n patients, drug-related AE) [1, 14]: 2
- Decreased appetite, G1 (n patients, drug-related AE) [1, 14]: 2
- Diarrhea, G1 (n patients, drug-related AE) [1, 14]: 1
- Diarrhea, G2 (n patients, drug-related AE) [1, 14]: 1
- Fatigue, G1 (n patients, drug-related AE) [1, 14]: 3
- Gastritis, G1 (n patients, drug-related AE) [1, 14]: 2
- Headache, G1 (n patients, drug-related AE) [1, 14]: 2
- Hypoalbuminemia, G1 (n patients, drug-related AE) [1, 14]: 2
- Hypoalbuminemia, G2 (n patients, drug-related AE) [1, 14]: 5
- Hypophosphatemia, G2 (n patients, drug-related AE) [1, 14]: 1
- Hypophosphatemia, G3 (n patients, drug-related AE) [1, 14]: 4
- Nausea, G1 (n patients, drug-related AE) [1, 14]: 6
- Neutrophil count decreased, G2 (n patients, drug-related AE) [1, 14]: 5
- Neutrophil count decreased, G3 (n patients, drug-related AE) [1, 14]: 3
- Platelet count decreased, G1 (n patients, drug-related AE) [1, 14]: 4
- Platelet count decreased, G2 (n patients, drug-related AE) [1, 14]: 1
- Platelet count decreased, G3 (n patients, drug-related AE) [1, 14]: 2
- Pneumonitis, G1 (n patients, drug-related AE) [1, 14]: 2
- Weight decreased, G1 (n patients, drug-related AE) [1, 14]: 1
- Weight decreased, G2 (n patients, drug-related AE) [1, 14]: 1
- White blood cell count decreased, G1 (n patients, drug-related AE) [1, 14]: 1
- White blood cell count decreased, G2 (n patients, drug-related AE) [1, 14]: 4
- Study treatment interrupted because of grade 3 platelet count decreased ([1]; by data cut-off date): two patients
- Study treatment interrupted owing to grade 3 neutrophil count decreased ([1]; by data cut-off date): Three patients
- ENT dose reduction ([1]; during DLT observation period, all cohorts): not observed
- ENT dose reduction from 5 mg to 3 mg owing to platelet count decreased and hypophosphatemia ([1]; in combination with EXE after DLT observation period): one patient in Cohort 2 and two patients in Cohort 4
- Serious AEs (SAEs) ([1]; start of study to cut-off date): one case each of abdominal pain (grade 2), pulmonary embolism (grade 3), maculopapular rash (grade 3), and femoral neck fracture (grade 3)
- AUC0–168 dose dependency ([2]; ENT alone, 3, 5, 10 mg): increased linearly with dose
- Steady state reached ([2]; all cohorts): cycle 1, day 15
- Tmax ([2]; human, plasma, oral administration, all cohorts): 28.8 to 85.2 min
- Cmax dose dependency ([2]; intersubject variability high at 10 mg): increased in accordance with dose escalation between 3 mg and 5 mg
- Increase of Ac-K levels in CD19+ cells vs prior to administration ([3]; Cohort 1 (ENT 3 mg)): about 1.5 fold
- Increase of Ac-K levels in CD19+ cells vs prior to administration ([3]; Cohort 2 (ENT 5 mg)): ~1.9 fold
- Increase of Ac-K levels in CD19+ cells vs prior to administration ([3]; Cohort 3 (ENT 10 mg)): ~2.7 fold
- Expression of HLA-DR in CD4+ and CD8+ T-cells [4]: increased over time
- Expression of CD69 ([4]; some patients, greater with SD ≥ 6 months): Increased expression
- Effect on electrocardiograms [5]: no effect
- T-cell activation markers such as CD69 [6]: increases
- Maximum tolerated dose [7]: 4 mg/m^2

SMILES: C=C1C[C@@H]2[C@H](CC[C@]3(C)C(=O)CC[C@@H]23)[C@@]2(C)C=CC(=O)C=C12 [EXE, exemestane]
- Influence on the PK of ENT ([2]; ENT monotherapy vs ENT + EXE 25 mg/d): no influence
- Median OS [8]: 19.84 months
- Median PFS [8]: 2.3 months
- mPFS ([9]; 35 Japanese patients): 4.21 months
- mPFS ([9]; second-line or later hormonal therapy): 4.1 months
